# Experimental data: patent US10005767B2, “Compositions and methods for inhibition of the JAK pathway” (Rigel Pharmaceuticals, Inc., priority 2009, dated 2018)
# System: human primary T-cells, IL-2 stimulated proliferation (JAK-1 and JAK-3 dependent; reported as JAK3 activity)
# Assay: Human primary T-cell proliferation stimulated by IL-2 (Example 3)
# Type: cell-based
# Details: tested under conditions described in Example 3 (IL-2 stimulated human primary T-cell proliferation); read-out: ability to inhibit JAK3 activity, IC50 range (Table V)
# Summary of the method: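 Peripheral-blood human T-cells pre-activated via TCR/CD28, IL-2-starved overnight, then cultured 72 h at 37 °C with compound in Yssel's medium containing IL-2 (80 U/mL in cell suspension). Proliferation read as viable-cell ATP by CellTiter-Glo luminescence; reduction versus control taken as JAK pathway inhibition.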
row,SMILES,IC50
1,"COc1cc(Nc2ncc(C)c(Nc3ccc4oc(=O)[nH]c4c3)n2)cc(OC)c1 [Compound I-280, N2-(3,5-dimethoxy)phenyl-5-methyl-N4-(2-oxo-2,3-dihydro-1,3-benzoxazol-5-yl)-2,4-pyrimidinediamine]",< 500 nM
2,"Cc1cnc(Nc2ccc(N3CCN(C)CC3)c(F)c2)nc1Nc1ccc2oc(=O)[nH]c2c1 [Compound I-281, N2-[3-fluoro-4-(4-methylpiperazino)]phenyl-5-methyl-N4-(2-oxo-2,3-dihydro-1,3-benzoxazol-5-yl)-2,4-pyrimidinediamine]",< 500 nM
3,"Cc1cnc(Nc2cc(F)c(N3CCN(C)CC3)c(F)c2)nc1Nc1ccc2oc(=O)[nH]c2c1 [Compound I-282, N2-[3,5-difluoro-4-(4-methylpiperazino)]phenyl-5-methyl-N4-(2-oxo-2,3-dihydro-1,3-benzoxazol-5-yl)-2,4-pyrimidinediamine]",< 500 nM
4,"CCN1CCN(c2cc(Nc3ncc(C)c(Nc4ccc5oc(=O)[nH]c5c4)n3)ccc2Cl)CC1 [Compound I-283, N2-[4-chloro-3-(4-ethylpiperazino)]phenyl-5-methyl-N4-(2-oxo-2,3-dihydro-1,3-benzoxazol-5-yl)-2,4-pyrimidinediamine]",< 500 nM
5,"Cc1cnc(Nc2ccc(Cl)c(N3CC(C)N(C)C(C)C3)c2)nc1Nc1ccc2oc(=O)[nH]c2c1 (stereo not drawn) [Compound I-284, N2-[4-chloro-3-(3,4,5-trimethylpiperazino)]phenyl-5-methyl-N4-(2-oxo-2,3-dihydro-1,3-benzoxazol-5-yl)-2,4-pyrimidinediamine]",< 500 nM
6,"CCCN1CCN(c2cc(Nc3ncc(C)c(Nc4ccc5oc(=O)[nH]c5c4)n3)ccc2C(F)(F)F)CC1 [Compound I-285, 5-methyl-N4-(2-oxo-2,3-dihydro-1,3-benzoxazol-5-yl)-N2-[3-(4-propylpiperazino)-4-trifluoromethyl]phenyl-2,4-pyrimidinediamine]",< 500 nM
7,"Cc1cnc(Nc2cccc(-c3cnco3)c2)nc1Nc1ccc2oc(=O)[nH]c2c1 [Compound I-286, 5-methyl-N2-[3-(1,3-oxazol-5-yl)]phenyl-N4-(2-oxo-2,3-dihydro-1,3-benzoxazol-5-yl)-2,4-pyrimidinediamine]",< 500 nM
8,"Cc1cnc(Nc2ccc(Br)cc2)nc1Nc1ccc2oc(=O)[nH]c2c1 [Compound I-288, N2-(4-bromo)phenyl-5-methyl-N4-(2-oxo-2,3-dihydro-1,3-benzoxazol-5-yl)-2,4-pyrimidinediamine]",< 500 nM
9,"Cc1cnc(Nc2cccc(-c3ccncc3)c2)nc1Nc1ccc2oc(=O)[nH]c2c1 [Compound I-289, 5-methyl-N4-(2-oxo-2,3-dihydro-1,3-benzoxazol-5-yl)-N2-[3-(pyridin-4-yl)]phenyl-2,4-pyrimidinediamine]",< 500 nM
10,"Cc1cnc(Nc2cccc(-c3cccnc3)c2)nc1Nc1ccc2oc(=O)[nH]c2c1 [Compound I-290, 5-methyl-N4-(2-oxo-2,3-dihydro-1,3-benzoxazol-5-yl)-N2-[3-(pyridin-3-yl)]phenyl-2,4-pyrimidinediamine]",< 500 nM
11,"Cc1cnc(Nc2ccc(-c3cccnc3)cc2)nc1Nc1ccc2oc(=O)[nH]c2c1 [Compound I-291, 5-methyl-N4-(2-oxo-2,3-dihydro-1,3-benzoxazol-5-yl)-N2-[4-(pyridin-3-yl)]phenyl-2,4-pyrimidinediamine]",< 500 nM
12,"COCCOc1cc(Nc2ncc(C)c(Nc3ccc4oc(=O)[nH]c4c3)n2)ccc1OC [Compound I-292, N2-[4-methoxy-3-(2-methoxyethoxy)]phenyl-5-methyl-N4-(2-oxo-2,3-dihydro-1,3-benzoxazol-5-yl)-2,4-pyrimidinediamine]",< 500 nM
13,"COc1ccc(Nc2ncc(C)c(Nc3ccc4oc(=O)[nH]c4c3)n2)cc1OCC(=O)NC1CC1 [Compound I-293, N2-[3-(cyclopropylaminocarbonylmethoxy)-4-methoxy]phenyl-5-methyl-N4-(2-oxo-2,3-dihydro-1,3-benzoxazol-5-yl)-2,4-pyrimidinediamine]",< 500 nM
14,"Cc1cnc(Nc2ccc(F)c(C#N)c2)nc1Nc1ccc2oc(=O)[nH]c2c1 [Compound I-294, N2-(3-cyano-4-fluoro)phenyl-5-methyl-N4-(2-oxo-2,3-dihydro-1,3-benzoxazol-5-yl)-2,4-pyrimidinediamine]",< 500 nM
15,"Cc1cnc(Nc2ccc(-n3cccc3)c(C#N)c2)nc1Nc1ccc2oc(=O)[nH]c2c1 [Compound I-295, N2-[3-cyano-4-(1H-pyrrol-1-yl)]phenyl-5-methyl-N4-(2-oxo-2,3-dihydro-1,3-benzoxazol-5-yl)-2,4-pyrimidinediamine]",< 500 nM
16,"COc1ccc(Nc2ncc(C)c(Nc3ccc4oc(=O)[nH]c4c3)n2)cc1C(F)(F)F [Compound I-297, N2-(4-methoxy-3-trifluoromethyl)phenyl-5-methyl-N4-(2-oxo-2,3-dihydro-1,3-benzoxazol-5-yl)-2,4-pyrimidinediamine]",< 500 nM
17,"COc1ccc(Nc2ncc(C)c(Nc3ccc4oc(=O)[nH]c4c3)n2)cc1OCc1ccncc1 [Compound I-298, N2-{4-methoxy-3-[(pyridin-4-yl)methoxy]}phenyl-5-methyl-N4-(2-oxo-2,3-dihydro-1,3-benzoxazol-5-yl)-2,4-pyrimidinediamine]",< 500 nM
18,"COc1ccc(Nc2ncc(C)c(Nc3ccc4oc(=O)[nH]c4c3)n2)cc1OCc1cccnc1 [Compound I-299, N2-{4-methoxy-3-[(pyridin-3-yl)methoxy]}phenyl-5-methyl-N4-(2-oxo-2,3-dihydro-1,3-benzoxazol-5-yl)-2,4-pyrimidinediamine]",< 500 nM
19,"COc1ccc(Nc2ncc(C)c(Nc3ccc4oc(=O)[nH]c4c3)n2)cc1OCCN(C)C [Compound I-300, N2-{4-methoxy-3-[2-(dimethylamino)ethoxy]}phenyl-5-methyl-N4-(2-oxo-2,3-dihydro-1,3-benzoxazol-5-yl)-2,4-pyrimidinediamine]",< 500 nM
20,"Cc1cc(C)cc(Nc2ncc(C)c(Nc3ccc4oc(=O)[nH]c4c3)n2)c1 [Compound I-302, N2-(3,5-dimethyl)phenyl-5-methyl-N4-(2-oxo-2,3-dihydro-1,3-benzoxazol-5-yl)-2,4-pyrimidinediamine]",< 500 nM
21,"Cc1cnc(Nc2ccc(C#N)c(C(F)(F)F)c2)nc1Nc1ccc2oc(=O)[nH]c2c1 [Compound I-303, N2-(4-cyano-3-trifluoromethyl)phenyl-5-methyl-N4-(2-oxo-2,3-dihydro-1,3-benzoxazol-5-yl)-2,4-pyrimidinediamine]",< 500 nM
22,"Cc1cnc(Nc2cccc(C(O)C(F)(F)F)c2)nc1Nc1ccc2oc(=O)[nH]c2c1 (stereo not drawn) [Compound I-304, N2-[3-(1-hydroxy-2,2,2-trifluoroethyl)]phenyl-5-methyl-N4-(2-oxo-2,3-dihydro-1,3-benzoxazol-5-yl)-2,4-pyrimidinediamine]",< 500 nM
23,"COC(=O)COc1cccc(Nc2ncc(C)c(Nc3ccc4oc(=O)[nH]c4c3)n2)c1 [Compound I-305, N2-(3-methoxycarbonylmethoxy)phenyl-5-methyl-N4-(2-oxo-2,3-dihydro-1,3-benzoxazol-5-yl)-2,4-pyrimidinediamine]",500 to 5000 nM
24,"CNC(=O)COc1cccc(Nc2ncc(C)c(Nc3ccc4oc(=O)[nH]c4c3)n2)c1 [Compound I-306, 5-methyl-N2-(3-methylaminocarbonylmethoxy)phenyl-N4-(2-oxo-2,3-dihydro-1,3-benzoxazol-5-yl)-2,4-pyrimidinediamine]",< 500 nM
